One experiment concerns Cryptosporidium parvum. Kind of experiment: Antiparasitic activity against Cryptosporidium parvum in HCT8 cells. Format: functional, organism-based. Particulars: HCT-8.
Experiment [1] concerns Meriones unguiculatus. Kind of experiment: Deparasitization of Cryptosporidium parvum infected gerbils treated with 400 mg/kg at day 12. It counts as functional.
Experiment [2] concerns Meriones unguiculatus. As to the kind of experiment: Reduction of oocyst in stools of Cryptosporidium parvum infected gerbils treated with 400 mg/kg at day 12. More on the design: scale not given: the % may be the effect or the level left. It counts as functional.
Experiment [3] has as its system Meriones unguiculatus. As to the kind of experiment: Reduction of oocyst in stools of Cryptosporidium parvum infected gerbils treated with 400 mg/kg at day 8. More on the design: scale not given: the % may be the effect or the level left. It counts as functional.
Another experiment relates to Plasmodium falciparum. As to the kind of experiment: Antiparasitic activity against Plasmodium falciparum T9-96 infected […] cells. Format: functional, organism-based.
The test system of the next experiment is Trichomonas vaginalis. As to the kind of experiment: Antiparasitic activity against Trichomonas vaginalis in […] cells. Format: functional, organism-based. The conditions noted are these: UCH-1.
In experiment [4] the test system is Meriones unguiculatus. As to the kind of experiment: Deparasitization of Cryptosporidium parvum infected gerbils treated with 200 mg/kg at day 8. It counts as functional.
The subject of experiment [5] is Meriones unguiculatus. As to the kind of experiment: Deparasitization of Cryptosporidium parvum infected gerbils treated with 400 mg/kg at day 8. It counts as functional.
Experiment [6] concerns Meriones unguiculatus. Kind of experiment: Reduction of oocyst in stools of Cryptosporidium parvum infected gerbils treated with 200 mg/kg at day 8. It counts as functional. More on the design: scale not given: the % may be the effect or the level left.
Experiment [7] concerns Meriones unguiculatus. Kind of experiment: Reduction of oocyst in stools of Cryptosporidium parvum infected gerbils treated with 100 mg/kg at day 8. Format: functional. On the set-up: scale not given: the % may be the effect or the level left.
Experiment [8] deals with Meriones unguiculatus. As to the kind of experiment: Deparasitization of Cryptosporidium parvum infected gerbils treated with 100 mg/kg at day 8. Format: functional.

Usually IC50 stands for the concentration that inhibits the measured activity by half.

In the experiment on Cryptosporidium parvum, `O=C(Cc1ccc([N+](=O)[O-])cc1)c1c(O)cc(O)cc1O` came in with an IC50 of 70.8 µM.
As for `CCOC(=O)c1oc2cc(O)cc(O)c2c(=O)c1-c1ccc(Br)cc1`, the Activity is reported as 13% with Meriones unguiculatus [1], 67% with Meriones unguiculatus [2] and 53.5% in the experiment with Meriones unguiculatus [3]. Moreover, the IC50 with Cryptosporidium parvum was determined as 0.6 µM.
On to `O=C(O)c1oc2cc(O)cc(O)c2c(=O)c1-c1cccc(Br)c1`, for which the midpoint of inhibition in the experiment with Cryptosporidium parvum, the IC50, lay at 20.1 µM.
`O=C1c2c(O)cc(O)cc2OCC1c1ccc([N+](=O)[O-])cc1` (stereo not drawn) yielded a half-maximal inhibitory concentration (IC50) in the experiment with Cryptosporidium parvum of 11.7 µM.
On to `O=c1c(-c2ccc([N+](=O)[O-])cc2)coc2cc(O)cc(O)c12`, for which the IC50 in the experiment with Plasmodium falciparum worked out at 20 µM; with Trichomonas vaginalis it was 8 µM; with Cryptosporidium parvum it was 1.8 µM.
Turning to `O=c1c(-c2cccc([N+](=O)[O-])c2)coc2cc(O)cc(O)c12`, the IC50 with Cryptosporidium parvum amounted to 0.3 µM.
In the experiment with Cryptosporidium parvum, `CCOC(=O)c1oc2cc(O)cc(O)c2c(=O)c1-c1ccc([N+](=O)[O-])cc1` showed an IC50 of 64.1 µM.
Regarding `O=C(Cc1ccc(Br)cc1)c1c(O)cc(O)cc1O`, in the experiment on Cryptosporidium parvum, the IC50 amounted to 15.9 µM.
Same read-out and setting: then `O=c1c(-c2ccc(Br)cc2)coc2cc(O)cc(O)c12`, with 1.3 µM; and `O=c1c(-c2cccc(Br)c2)coc2cc(O)cc(O)c12`, with 0.4 µM.
In the experiment on Cryptosporidium parvum, `O=C(Cc1cccc([N+](=O)[O-])c1)c1c(O)cc(O)cc1O` returned an IC50 of 464 µM.
In the experiment on Cryptosporidium parvum, `CCOC(=O)c1oc2cc(O)cc(O)c2c(=O)c1-c1cccc([N+](=O)[O-])c1` yielded a 50% inhibitory concentration (IC50) of 15.8 µM.
In turn, `O=C(Cc1cccc(Br)c1)c1c(O)cc(O)cc1O` displayed an IC50 in the experiment with Cryptosporidium parvum of 17.2 µM.
`CCOC(=O)c1oc2cc(O)cc(O)c2c(=O)c1-c1cccc(Br)c1`: the Activity with Meriones unguiculatus [4] is 60%; with Meriones unguiculatus [3] it was 92%; in the experiment with Meriones unguiculatus [5] it was 60%; in the experiment on Meriones unguiculatus [6], 90.5%. The IC50 in the experiment with Cryptosporidium parvum was 1.6 µM.
For the compound `CC(=O)Oc1ccccc1C(=O)Nc1ncc([N+](=O)[O-])s1` [NITAZOXANIDE], the values for the Activity with Meriones unguiculatus [4] and in the experiment with Meriones unguiculatus [6] were 14% and 55%, respectively. Also, the IC50 in the experiment with Cryptosporidium parvum came to 3.25 µM.
In the case of `NC[C@@H]1O[C@H](O[C@H]2[C@@H](O)[C@H](O[C@@H]3[C@@H](O)[C@H](N)C[C@H](N)[C@H]3O[C@H]3O[C@H](CO)[C@@H](O)[C@H](O)[C@H]3N)O[C@@H]2CO)[C@H](N)[C@@H](O)[C@@H]1O` [PAROMOMYCIN], the results for the Activity with Meriones unguiculatus [7] and with Meriones unguiculatus [8] were 17.6% and 14%, respectively.
